# US9447148B2, “Melanocortin-1 receptor-specific cyclic peptides” (Palatin Technologies, Inc., priority 2009, dated 2016)
# Numbered stars: 1 amine (or outer) side, 2 acyl side, 3 side chain; on linkers, the order of the positions; unused ones are H or OH. Bridge positions count the residues as written; N and C are the ends. Square brackets hold non-standard residues; d marks the D form. Peptide text beside a SMILES is read from it. Suc = O=C(CCC(=O)[*:2])[*:1]; Nle = CCCC[C@H](N)C(=O)O; Dab = NCC[C@H](N)C(=O)O
# Molecular target: hMCR-4 (Homo sapiens (Human), UniProt P32245)
# Sequence (P32245 whole entry): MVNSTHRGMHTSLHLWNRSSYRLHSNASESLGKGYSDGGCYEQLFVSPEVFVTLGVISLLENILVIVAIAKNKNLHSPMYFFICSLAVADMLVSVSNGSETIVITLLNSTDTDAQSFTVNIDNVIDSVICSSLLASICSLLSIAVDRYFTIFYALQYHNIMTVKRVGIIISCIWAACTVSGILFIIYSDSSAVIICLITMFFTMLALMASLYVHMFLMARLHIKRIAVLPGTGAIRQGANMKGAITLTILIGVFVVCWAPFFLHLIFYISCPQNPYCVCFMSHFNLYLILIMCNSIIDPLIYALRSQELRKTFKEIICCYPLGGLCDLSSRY
# Assay: Competitive inhibition binding assay using [I125]-NDP-α-MSH, hMCR-4
# Conditions: membrane homogenates of HEK-293 cells, human recombinant receptor, averaged, read-out: MC-4 Ki (average)
# Description: A competitive inhibition binding assay was performed using membrane homogenates prepared from HEK-293 cells that express recombinant hMCR-1a or hMCR-4 (in each instance where the h prefix refers to human), or alternatively membrane homogenates from B16-F10 mouse melanoma cells containing endogenous murine MCR-1. In the examples that follow, all MCR-1 and MCR-4 values are for human recombinant receptors, unless otherwise noted. Assays were performed in 96 well polypropylene round-bottom plates (VWR catalog number 12777-030). […] After incubation for 90 minutes at 37° C., the assay mixture was filtered onto GF/B Unifilter plates (Perkin-Elmer catalog number 6005177) and washed with 3 mL of ice-cold buffer per well. Filters were air dried and 35 μL of scintillation cocktail added to each well. Plates were counted in a Microbeta counter for bound radioactivity. […] Each assay was conducted in duplicate and the actual mean values are described, with results less than 0% reported as 0%. Ki values for peptides of the present invention were determined using Graph-Pad Prism® curve-fitting software.
# (§1) Peptides of the following structures were synthesized and averaged MCR-1 and MCR-4 Ki values were determined as indicated. […] All results are expressed in nM except for Emax values, which are percentage values. Peptides with the captioned primary sequence were synthesized and purified as described in Section 5 above, with the resulting peptide having the structure depicted.
row,Compound,Ki [nM]
1,"CCCC[C@H](NC(C)=O)C(=O)N[C@H]1CCC(=O)NCCCC[C@@H](C(=O)N[C@@H](Cc2c[nH]c3ccccc23)C(N)=O)NC(=O)[C@H](CCCNC(=N)N)NC(=O)[C@@H](Cc2ccccc2)NC(=O)[C@H](Cc2c[nH]cn2)NC1=O [Example 9.1, Ac-Nle-cyclo(Glu-His-D-Phe-Arg-Lys)-Trp-NH2]",45
2,"CCCC[C@H](NC(C)=O)C(=O)N[C@H]1CCC(=O)NCC[C@@H](C(=O)N[C@@H](Cc2c[nH]c3ccccc23)C(N)=O)NC(=O)[C@H](CCCNC(=N)N)NC(=O)[C@@H](Cc2ccccc2)NC(=O)[C@H](Cc2c[nH]cn2)NC1=O [Example 9.2, Ac-Nle-cyclo(Glu-His-D-Phe-Arg-Dab)-Trp-NH2]",110
3,"CCCC[C@H](NC(C)=O)C(=O)N[C@H]1CCC(=O)NC[C@@H](C(=O)N[C@@H](Cc2c[nH]c3ccccc23)C(N)=O)NC(=O)[C@H](CCCNC(=N)N)NC(=O)[C@@H](Cc2ccccc2)NC(=O)[C@H](Cc2c[nH]cn2)NC1=O [Example 9.3, Ac-Nle-cyclo(Glu-His-D-Phe-Arg-Dap)-Trp-NH2]",358
4,"CCCC[C@H](NC(C)=O)C(=O)N[C@H]1CCC(=O)NCCC[C@@H](C(=O)N[C@@H](Cc2c[nH]c3ccccc23)C(N)=O)NC(=O)[C@H](CCCNC(=N)N)NC(=O)[C@@H](Cc2ccccc2)NC(=O)[C@H](Cc2c[nH]cn2)NC1=O [Example 9.6, Ac-Nle-cyclo(Glu-His-D-Phe-Arg-Orn)-Trp-NH2]",295
5,"CCCC[C@H](NC(C)=O)C(=O)N[C@H]1CCC(=O)NCC[C@@H](C(=O)N[C@H](Cc2c[nH]c3ccccc23)C(N)=O)NC(=O)[C@H](CCCNC(=N)N)NC(=O)[C@@H](Cc2ccccc2)NC(=O)[C@H](Cc2c[nH]cn2)NC1=O [Example 9.7, Ac-Nle-cyclo(Glu-His-D-Phe-Arg-Dab)-D-Trp-NH2]",33
6,"CCCC[C@H](NC(C)=O)C(=O)N[C@H]1CCC(=O)NCC[C@@H](C(=O)N[C@@H](Cc2c[nH]c3ccccc23)C(N)=O)NC(=O)[C@H](CCCNC(=N)N)NC(=O)[C@H](Cc2ccccc2)NC(=O)[C@H](Cc2c[nH]cn2)NC1=O [Example 9.8, Ac-Nle-cyclo(Glu-His-Phe-Arg-Dab)-Trp-NH2]",10000
7,"CCCC[C@H](NC(C)=O)C(=O)N[C@H]1CCC(=O)NCC[C@@H](C(=O)N[C@H](Cc2cccc3ccccc23)C(N)=O)NC(=O)[C@H](CCCNC(=N)N)NC(=O)[C@@H](Cc2ccccc2)NC(=O)[C@H](Cc2c[nH]cn2)NC1=O [Example 9.9, Ac-Nle-cyclo(Glu-His-D-Phe-Arg-Dab)-D-Nal 1-NH2]",2
8,"CCCC[C@H](NC(C)=O)C(=O)N[C@H]1CCC(=O)NCC[C@@H](C(=O)N[C@@H](Cc2ccc3ccccc3c2)C(N)=O)NC(=O)[C@H](CCCNC(=N)N)NC(=O)[C@@H](Cc2ccccc2)NC(=O)[C@H](Cc2c[nH]cn2)NC1=O [Example 9.10, Ac-Nle-cyclo(Glu-His-D-Phe-Arg-Dab)-Nal 2-NH2]",3
9,"CCCC[C@H](NC(C)=O)C(=O)N[C@H]1CCC(=O)NCC[C@@H](C(=O)N[C@H](Cc2ccc3ccccc3c2)C(N)=O)NC(=O)[C@H](CCCNC(=N)N)NC(=O)[C@@H](Cc2ccccc2)NC(=O)[C@H](Cc2c[nH]cn2)NC1=O [Example 9.11, Ac-Nle-cyclo(Glu-His-D-Phe-Arg-Dab)-D-Nal 2-NH2]",0.095
10,"CC(=O)N[C@H](Cc1ccccc1)C(=O)N[C@H]1CCC(=O)NCC[C@@H](C(=O)N[C@@H](Cc2c[nH]c3ccccc23)C(N)=O)NC(=O)[C@H](CCCNC(=N)N)NC(=O)[C@@H](Cc2ccccc2)NC(=O)[C@H](Cc2c[nH]cn2)NC1=O [Example 9.12, Ac-D-Phe-cyclo(Glu-His-D-Phe-Arg-Dab)-Trp-NH2]",535
11,"N=C(N)NCCC[C@@H]1NC(=O)[C@@H](Cc2ccccc2)NC(=O)[C@H](Cc2c[nH]cn2)NC(=O)CCC(=O)NCC[C@@H](C(=O)N[C@@H](Cc2c[nH]c3ccccc23)C(N)=O)NC1=O [Example 9.14, cyclo(Suc-His-Phe-Arg-Dab)-Trp-NH2] (H[dF]R[Dab]W-NH2; linker N-4 via Suc)",10000
12,"CCCCCC(=O)N[C@H]1CCC(=O)NCC[C@@H](C(=O)N[C@@H](Cc2c[nH]c3ccccc23)C(N)=O)NC(=O)[C@H](CCCNC(=N)N)NC(=O)[C@@H](Cc2ccccc2)NC(=O)[C@H](Cc2c[nH]cn2)NC1=O [Example 9.17, CH3—(CH2)4—C(═O)-cyclo(Glu-His-D-Phe-Arg-Dab)-Trp-NH2]",110
13,CCCC[C@H](NC(C)=O)C(=O)N[C@H]1CCNC(=O)CCC(=O)NCC[C@@H](C(=O)N[C@@H](Cc2c[nH]c3ccccc23)C(N)=O)NC(=O)[C@H](CCCNC(=N)N)NC(=O)[C@@H](Cc2ccccc2)NC(=O)[C@H](Cc2c[nH]cn2)NC1=O [Example 9.27],380
14,CCCC[C@H](NC(C)=O)C(=O)N[C@H]1CNC(=O)CCC(=O)NC[C@@H](C(=O)N[C@@H](Cc2c[nH]c3ccccc23)C(N)=O)NC(=O)[C@H](CCCNC(=N)N)NC(=O)[C@@H](Cc2ccccc2)NC(=O)[C@H](Cc2c[nH]cn2)NC1=O [Example 9.28],680
15,CCCC[C@H](NC(C)=O)C(=O)N[C@H]1CCNC(=O)CCC(=O)NC[C@@H](C(=O)N[C@@H](Cc2c[nH]c3ccccc23)C(N)=O)NC(=O)[C@H](CCCNC(=N)N)NC(=O)[C@@H](Cc2ccccc2)NC(=O)[C@H](Cc2c[nH]cn2)NC1=O [Example 9.29],325
16,"CCCC[C@H](NC(C)=O)C(=O)N[C@H]1CCC(=O)NCC[C@@H](C(=O)N[C@@H](Cc2cccc3ccccc23)C(N)=O)NC(=O)[C@H](CCCNC(=N)N)NC(=O)[C@@H](Cc2ccccc2)NC(=O)[C@H](Cc2c[nH]cn2)NC1=O [Example 9.30, Ac-Nle-cyclo(Glu-His-D-Phe-Arg-Dab)-Nal 1-NH2]",0.75
17,"CCCC[C@H](NC(C)=O)C(=O)N[C@H]1CCC(=O)NCC[C@@H](C(=O)N[C@@H](Cc2c[nH]c3ccccc23)C(N)=O)NC(=O)[C@H](CCCNC(=N)N)NC(=O)[C@@H](Cc2ccccc2)NC(=O)[C@H](C)NC1=O [Example 9.36, Ac-Nle-cyclo(Glu-Ala-D-Phe-Arg-Dab)-Trp-NH2]",455
18,"CCCC[C@H](NC(C)=O)C(=O)N[C@H]1CCC(=O)NCC[C@@H](C(=O)N[C@@H](Cc2c[nH]c3ccccc23)C(N)=O)NC(=O)[C@H](CCCNC(=N)N)NC(=O)[C@@H](Cc2ccccc2)NC(=O)[C@H](CCCNC(=N)N)NC1=O [Example 9.37, Ac-Nle-cyclo(Glu-Arg-D-Phe-Arg-Dab)-Trp-NH2]",20
19,"CCCC[C@H](NC(C)=O)C(=O)N[C@H]1CCC(=O)NCC[C@@H](C(=O)N[C@@H](Cc2c[nH]c3ccccc23)C(N)=O)NC(=O)[C@H](CCCNC(=N)N)NC(=O)[C@@H](Cc2ccccc2)NC(=O)[C@H](CCCNC(N)=O)NC1=O [Example 9.38, Ac-Nle-cyclo(Glu-Cit-D-Phe-Arg-Dab)-Trp-NH2]",98
20,"CCCC[C@H](NC(C)=O)C(=O)N[C@H]1CCC(=O)NCC[C@@H](C(=O)N[C@@H](Cc2c[nH]c3ccccc23)C(N)=O)NC(=O)[C@H](CCCNC(=N)N)NC(=O)[C@@H](Cc2ccccc2)NC(=O)[C@H](CCCCN)NC1=O [Example 9.40, Ac-Nle-cyclo(Glu-Lys-D-Phe-Arg-Dab)-Trp-NH2]",95
21,"CCCC[C@H](NC(C)=O)C(=O)N[C@H]1CCC(=O)NCC[C@@H](C(=O)N[C@@H](Cc2c[nH]c3ccccc23)C(N)=O)NC(=O)[C@H](CCCNC(=N)N)NC(=O)[C@@H](Cc2ccccc2)NC(=O)[C@H](CCN)NC1=O [Example 9.41, Ac-Nle-cyclo(Glu-Dab-D-Phe-Arg-Dab)-Trp-NH2]",98
22,"CCCC[C@H](NC(C)=O)C(=O)N[C@H]1CCC(=O)NCC[C@@H](C(=O)N[C@@H](Cc2c[nH]c3ccccc23)C(N)=O)NC(=O)[C@H](CCCNC(=N)N)NC(=O)[C@@H](Cc2ccccc2)NC(=O)[C@H](CCCN)NC1=O [Example 9.42, Ac-Nle-cyclo(Glu-Orn-D-Phe-Arg-Dab)-Trp-NH2]",45
23,"CCCC[C@H](NC(C)=O)C(=O)N[C@H]1CCC(=O)NCC[C@@H](C(N)=O)NC(=O)[C@H](CCCNC(=N)N)NC(=O)[C@@H](Cc2ccccc2)NC(=O)[C@@H]2CCCN2C1=O [Example 9.65, Ac-Nle-cyclo(Glu-Pro-D-Phe-Arg-Dab)-NH2]",10000

# Molecular target: hMCR-1 (Homo sapiens (Human), UniProt Q01726)
# Sequence (Q01726 whole entry): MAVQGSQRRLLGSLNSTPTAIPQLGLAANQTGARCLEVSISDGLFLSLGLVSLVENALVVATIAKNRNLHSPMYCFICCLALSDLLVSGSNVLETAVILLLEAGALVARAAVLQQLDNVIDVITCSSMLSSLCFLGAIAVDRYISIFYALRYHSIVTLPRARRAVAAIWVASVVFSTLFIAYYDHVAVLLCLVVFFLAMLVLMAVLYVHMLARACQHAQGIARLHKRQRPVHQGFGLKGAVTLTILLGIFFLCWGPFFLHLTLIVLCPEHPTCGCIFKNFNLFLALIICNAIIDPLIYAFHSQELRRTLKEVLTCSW
# Assay: Assay for agonist activity: intracellular cAMP accumulation in HBL human melanoma cells
# Format: cell-based
# Conditions: HBL cells, maximum efficacy compared to reference agonist NDP-α-MSH
# Description: Confluent HBL cells that express hMCR-1 or HEK-293 cells that express recombinant hMCR-4 were detached from culture plates by incubation in enzyme-free cell dissociation buffer. Dispersed cells were suspended in Earle's Balanced Salt Solution containing 10 mM HEPES (pH 7.5), 1 mM MgCl2, 1 mM glutamine, 0.5% albumin and 0.3 mM 3-isobutyl-1-methyl-xanthine (IBMX), a phosphodiesterase inhibitor. The cells were plated in 96-well plates at a density of 0.4×10^5 cells per well for HBL cells and 0.5×10^5 cells per well for HEK-293 cells and pre-incubated for 10 minutes. Cells were exposed for 15 minutes at 37° C. to peptides of the present invention dissolved in DMSO (final DMSO concentration of 1%) at a concentration range of 0.05-5000 nM in a total assay volume of 200 μL. […] Data analysis was performed by nonlinear regression analysis with Graph-Pad Prism® software.
# as §1
row,Compound,MC-1 Emax (average; cAMP HBL)
1,"CCCC[C@H](NC(C)=O)C(=O)N[C@H]1CCC(=O)NCC[C@@H](C(N)=O)NC(=O)[C@H](CCCNC(=N)N)NC(=O)[C@@H](Cc2ccccc2)NC(=O)[C@H](Cc2c[nH]cn2)NC1=O [Example 9.44, Ac-Nle-cyclo(Glu-His-D-Phe-Arg-Dab)-NH2] (Ac-[Nle]EH[dF]R[Dab]-NH2; lactam 2-6)",85% ^
2,"CCCC[C@H](NC(C)=O)C(=O)N[C@H]1CCC(=O)NCC[C@@H](C(N)=O)NC(=O)[C@H](C)NC(=O)[C@@H](Cc2ccccc2)NC(=O)[C@H](Cc2c[nH]cn2)NC1=O [Example 9.45, Ac-Nle-cyclo(Glu-His-D-Phe-Ala-Dab)-NH2] (Ac-[Nle]EH[dF]A[Dab]-NH2; lactam 2-6)",73%
